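Tested at 5 concentrations; 48 h exposure; 96-well plates; endpoints linearly interpolated, else capped at highest concentration. The concentration for 50% growth inhibition is given as GI50.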 Activity calls are given as the source filed them. No stated cut-off is given here; in the data, active = GI50 up to about 1.1 µM and inactive = higher.
How the values were obtained:
Experiment in all cases: DTP human tumour cell line panel, 48 h
UO-31 = system: UO-31
UACC-257 = system: UACC-257
HT-29 = system: HT-29
UACC-62 = system: UACC-62
SF-268 = system: SF-268
A498 = system: A498
NCI-H226 = system: NCI-H226
NCI-H23 = system: NCI-H23
OVCAR-3 = system: OVCAR-3
M14 = system: M14
NCI-H522 = system: NCI-H522
LOX IMVI = system: LOX IMVI
SN12C = system: SN12C
SK-MEL-2 = system: SK-MEL-2
Hs-578T = system: Hs-578T
SNB-75 = system: SNB-75
HCT-116 = system: HCT-116
OVCAR-4 = system: OVCAR-4
SR = system: SR
RXF 393 = system: RXF 393

SMILES | GI50 (UO-31) | GI50 (UACC-257) | GI50 (HT-29) | GI50 (UACC-62) | GI50 (SF-268) | GI50 (A498) | GI50 (NCI-H226) | GI50 (NCI-H23) | GI50 (OVCAR-3) | GI50 (M14) | GI50 (NCI-H522) | GI50 (LOX IMVI) | GI50 (SN12C) | GI50 (SK-MEL-2) | GI50 (Hs-578T) | GI50 (SNB-75) | GI50 (HCT-116) | GI50 (OVCAR-4) | GI50 (SR) | GI50 (RXF 393)
O=C1C=C(OCCCCl)C(=O)c2c(O)ccc(O)c21 | 1.18 µM (inactive) | 0.176 µM (active) | 0.581 µM (active) | 0.286 µM (active) | 1.73 µM (inactive) | 2.13 µM (inactive) | 1.84 µM (inactive) | 0.237 µM (active) | 0.505 µM (active) | 0.188 µM (active) | 2.36 µM (inactive) | 0.256 µM (active) | 0.35 µM (active) | 1.02 µM (active) | 2.42 µM (inactive) | 1.4 µM (inactive) | 0.459 µM (active) | 1.25 µM (inactive) | 0.871 µM (active) | 1.69 µM (inactive)
O=[N+]([O-])C1=Cc2c(O)ccc(O)c2C2c3ccccc3NC12 (stereo not given) | 5.33 µM (inactive) | 13.9 µM (inactive) | 9.02 µM (inactive) | 6.32 µM (inactive) | 16.7 µM (inactive) | 14.7 µM (inactive) | 61.2 µM (inactive) | 4.24 µM (inactive) | 5.81 µM (inactive) | 13.2 µM (inactive) | 2.45 µM (inactive) | 14 µM (inactive) | 16.7 µM (inactive) | 16.9 µM (inactive) | 26.1 µM (inactive) | 22.4 µM (inactive) | 9.16 µM (inactive) | 16 µM (inactive) | 13.5 µM (inactive) | 13.2 µM (inactive)
CCOC(=O)C(C(N)=O)C1=Nc2cc([N+](=O)[O-])ccc2N/C1=C\C(=O)c1ccccc1 (stereo not given) | 19.5 µM (inactive) | 19.8 µM (inactive) | 16.5 µM (inactive) | 17.3 µM (inactive) | 12.7 µM (inactive) | 16.6 µM (inactive) | 31.3 µM (inactive) | 11.5 µM (inactive) | 10.3 µM (inactive) | 14.7 µM (inactive) | 14.9 µM (inactive) | 14.1 µM (inactive) | 23.1 µM (inactive) | 15.3 µM (inactive) | 16.5 µM (inactive) | 17.7 µM (inactive) | 15 µM (inactive) | 18.7 µM (inactive) | 3.3 µM (inactive) | 17.7 µM (inactive)
C/C(Cl)=N/OC(=O)Nc1ccc(S(N)(=O)=O)c(C)c1 | 14.9 µM (inactive) | 14.7 µM (inactive) | 17.8 µM (inactive) | 15.7 µM (inactive) | 26.1 µM (inactive) | 18.2 µM (inactive) | 23.6 µM (inactive) | 18.1 µM (inactive) | 4.46 µM (inactive) | 9.14 µM (inactive) | 1.45 µM (inactive) | 2.27 µM (inactive) | 13.4 µM (inactive) | 18.6 µM (inactive) | 43.4 µM (inactive) | 19 µM (inactive) | 12 µM (inactive) | 15.5 µM (inactive) | 1.86 µM (inactive) | 16.9 µM (inactive)
O=S(=O)(O)c1cccc2c(/N=N/c3c(O)ccc4ccccc34)cccc12 | > 100 µM (inactive) | > 100 µM (inactive) | > 100 µM (inactive) | > 100 µM (inactive) | > 100 µM (inactive) | > 100 µM (inactive) | > 100 µM (inactive) | > 100 µM (inactive) | > 100 µM (inactive) | > 100 µM (inactive) | > 100 µM (inactive) | > 100 µM (inactive) | > 100 µM (inactive) | > 100 µM (inactive) | > 100 µM (inactive) | > 100 µM (inactive) | > 100 µM (inactive) | > 100 µM (inactive) | > 100 µM (inactive) | > 100 µM (inactive)
CCCCCCCCCCCC/C=C\CC[C@@H](O)[C@H](O)CC[C@H](O)[C@@H]1CC[C@@H](CCCCCCCC2=C[C@H](C)OC2=O)O1 [GIGANTRIONENIN] | 1.71 µM (inactive) | 0.0546 µM (active) | 2.31 µM (inactive) | 1.35 µM (inactive) | 4.42 µM (inactive) | 5.56 µM (inactive) | 1.48 µM (inactive) | 0.11 µM (active) | 1.99 µM (inactive) | 13.9 µM (inactive) | 7.45 µM (inactive) | 1.31 µM (inactive) | 5.05 µM (inactive) | 2.24 µM (inactive) | 3.03 µM (inactive) | 7.66 µM (inactive) | 1.87 µM (inactive) | 10.8 µM (inactive) | 1.41 µM (inactive) | 19.4 µM (inactive)

From ChEMBL document CHEMBL1201862, “PubChem BioAssay data set” (2004)
